Results on 17 compounds are retold here after patent publication US20130079345A1, “[…] ACTIVE DISUBSTITUTED TRIAZINE DERIVATIVES” (BAYER INTELLECTUAL PROPERTY GMBH, priority 2010, published 2013).

Experiment [1] deals with RNA Polymerase II Ser2 phosphorylation (cellular CDK9 activity) in HCT-116 cells. Kind of experiment: RNA-Polymerase II Ser2 cellular phosphorylation assay. In kind it is cell-based. The note with it: Homo sapiens, normalized with tubulin. Here is the method:
HCT-116 cells (DSMZ, Braunschweig, Germany) were maintained in Mc Coy's cell culture medium+glutamine (PAN Biotech GmbH, Aidenbach, Germany) supplemented with 10% fetal calf serum (PAA Laboratories GmbH, Pasching, Austria) and grown at 37° C., 5% CO2. For the cellular phosphorylation assay, cells were seeded with 2×10^5 cells/well/1 ml in 24-well plates (Greiner Bio—One, Frickenhausen, Germany; catalog #662160). The compounds of general formula (I) summarized in Table 6 were diluted from a 10 mM DMSO stock solution 1:10 in a total volume of 15 μL DMSO. After overnight incubation at 37° C./5% CO2, 1.5 μL of a compound diluted in DMSO was added to each sample well. Wells with cells and 0.15% DMSO in culture medium were used as positive controls, wells without cells and 0.15% DMSO in culture medium were used as negative controls. The cells were incubated with the compounds for 72 h at 37° C./5% CO2. Before lysis, cells were washed with phosphate buffered saline. Phosphorylation of RNA Polymerase II Ser2 and tubulin levels for normalization were analyzed afterwards with the Multi-Array technology (Meso Scale Discovery, Gaithersburg, Md., USA), a combination of antibody coupled electrochemiluminescence detection and patterned arrays. Manufacturer's instructions were followed and all solutions were purchased from Meso Scale Discovery. In brief, cells were lysed by 30 min incubation in CLB1 lysis buffer (Zeptosens, Witterswil, Switzerland; 60 μL per well), and supernatants were cleared by centrifugation. For analysis of RNA Polymerase II Ser2-phosphorylation, lysates were diluted 1:50 with Meso Scale Lysis Buffer supplemented with phosphatase- and protease-inhibitors, and 25 µL of each sample was pipetted in a well of a MSD Multi-Array 96-Well Plate Sector® Imager High Bind Plate (Meso Scale Discovery; catalog #L15XB-3/L11XB-3), and incubated for 2 h at room temperature. […] Meso Scale Tris Wash Buffer supplemented with 3% w/v Meso Scale Blocker A were added per well, then plates were sealed and incubated 1 h with vigorous shaking. Plates were washed with 1× Tris Wash Buffer (10× Meso Scale Wash Buffer diluted 1:10 in destilled water), 25 μL of antibody solution was added (CTD7 3E10 antibody from Helmholtz Zentrum Munich, Germany, diluted 1:100 in Meso Scale Tris Wash Buffer supplemented with 1% w/v Meso Scale Blocker A), and plates were washed three times in 1× Tris Wash Buffer. 25 μL of MSD® SULFO-TAG™ Goat-Anti-Rat-Antibody (Meso Scale Discovery, catalog #R^32AH-1, diluted 1:125 in Tris Wash Buffer with 1% (w/v) blocker A) were added per well, plates were sealed and incubated with vigorous shaking for 1 h at room temperature. Finally, plates were washed three times with Tris Wash Buffer, 150 μl 2× Read Buffer (Meso Scale Discovery) were added per well and plates were analyzed immediately in a Sector Imager from Meso Scale Discovery. For determination of tubulin protein levels, samples were analyzed with the protocol for RNA Polymerase II Ser2-phosphorylation, with an anti-tubulin antibody (rabbit; BIODESIGN International, catalog #T59840R, diluted 1:100) and a MSD® SULFO-TAG™ […] (Meso Scale Discovery, catalog #R^32AH-1, diluted 1:125). RNA Polymerase II Ser2 phosphorylation was normalized with tubulin protein levels, and EC50 values were calculated with the software XLFit (IDBS, Guildford, UK) from 2-fold dilution series comprising 6 concentrations in duplicates.

The next experiment addresses T1, CDK9 (Homo sapiens, UniProt P50750).
T1 construct: purchased Invitrogen
Kind of experiment: Lance Ultra KinaSelect Assay, CDK9. In kind it is biochemical. Conditions: read-out: Inhibition (IC50) CDK9. Here is the method:
(§1) This protocol describes how the Lance Ultra KinaSelect Assay was performed to determine half maximal inhibitory concentration (IC50) of compounds of general formula (I) and CDK/Cyclin complexes. The principle behind this enzymatic assay is based upon the phosphorylation of the ULight-Peptide Substrat. It is detected by using a specific EU-labeled anti-phospho peptide antibody. The binding of the Eu-labeled anti-phospho peptide antibody to the phosphorylated U Light labeled peptide gives rise to a FRET-signal. Binding of an inhibitor to the kinase prevents phosphorylation of the ULight-MBP Substrat, resulting in a loss of FRET.
(§2) The compounds of general formula (I) summarized in Table 5 were diluted from a 10 mM DMSO stock solution 1:10 in a total volume of 15 μL DMSO. This compound predilution was then serial diluted 1:3 over 8 steps in DMSO and briefly spun down. Each compound solution was now diluted 1:20 in Enzymatic Buffer (HEPES: 50 mM, pH: 7.5; MgCl2: 10 mM; EGTA: 1 mM; DTT: 2 mM; Tween-20: 0.01%), mixed thoroughly and spun down. For every sample, 2 μL of the diluted compound were mixed with 6 μL CDK/Cyclin/Substrat solution and […] in a well of a small volume 384 well plate (Corning Incorporated, Corning, N.Y., USA; order no. 3673). […] For positive controls, in each well 2 μL of DMSO solution (1% final DMSO assay concentration) was mixed with 6 μL CDK/Cyclin/Substrat (appropriate final concentration see Table 3) and 2 μL Tracer ATP solution (appropriate final concentration see Table 3). Positive and negative controls were calculated from at least 8 different sample wells. The 384 well plates were mixed in a Teleshaker plate mixer (Beckman Coulter, Brea, Calif., USA) at 2000 rpm for 40 sec, and incubated for 1 h at room temperature. Before reading, 10 μL detection buffer (Lance Detection Buffer 1×; EDTA: […]; Eu-Anti-P-MBP: see Table 3) was added. The FRET signal was measured at 340 nm excitation, 665 nm and 615 nm emission (for the kinase tracer and LanthaScreen Eu-AB, respectively) with an Envision spectrophotometer (Perkin Elmer, Waltham, Mass., USA) with 50 μs delay and 300 μs integration time. IC50 values were determined from the sigmoidal dose response curves with the software Quattro Workflow (Quattro GmbH, Munich, Germany).

The next experiment concerns the target T2, CDK4/CyclinD1 (Homo sapiens, UniProt P11802).
T2 construct: purchased Invitrogen
Briefly: Lance Ultra KinaSelect Assay, CDK4. In kind it is biochemical. Conditions: ATP 90 μM, read-out: Inhibition (IC50) CDK4. Here is the method: as §1, §2

The next experiment deals with T3, CDK7/CyclinH/Mat1 (Homo sapiens, UniProt P50613).
T3 construct: purchased Carna Biosciences
Briefly: Lance Ultra KinaSelect Assay, CDK7. The experiment is classed as biochemical. Conditions: ATP 25 μM, read-out: Inhibition (IC50) CDK7. Here is the method: as §1, §2

A further experiment has as its target T4, CDK6/CyclinD3 (Homo sapiens, UniProt Q00534).
T4 construct: purchased Carna
Kind of experiment: Lance Ultra KinaSelect Assay, CDK6. In kind it is biochemical. The note with it: read-out: Inhibition (IC50) CDK6. Here is the method: as §1, §2

pIC50: −log10 of the molar value. Where a name gives a salt, the structure may show the parent alone.

T2 sequence (P11802 whole entry): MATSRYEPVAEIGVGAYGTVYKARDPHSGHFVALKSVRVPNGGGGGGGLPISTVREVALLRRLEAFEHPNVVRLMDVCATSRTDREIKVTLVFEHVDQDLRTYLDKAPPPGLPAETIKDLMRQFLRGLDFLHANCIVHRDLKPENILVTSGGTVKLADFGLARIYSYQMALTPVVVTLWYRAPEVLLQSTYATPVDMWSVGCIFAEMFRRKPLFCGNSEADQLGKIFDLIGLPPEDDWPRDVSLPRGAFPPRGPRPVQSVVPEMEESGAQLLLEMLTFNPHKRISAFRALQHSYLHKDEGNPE
T2 sequence (P24385 whole entry partner): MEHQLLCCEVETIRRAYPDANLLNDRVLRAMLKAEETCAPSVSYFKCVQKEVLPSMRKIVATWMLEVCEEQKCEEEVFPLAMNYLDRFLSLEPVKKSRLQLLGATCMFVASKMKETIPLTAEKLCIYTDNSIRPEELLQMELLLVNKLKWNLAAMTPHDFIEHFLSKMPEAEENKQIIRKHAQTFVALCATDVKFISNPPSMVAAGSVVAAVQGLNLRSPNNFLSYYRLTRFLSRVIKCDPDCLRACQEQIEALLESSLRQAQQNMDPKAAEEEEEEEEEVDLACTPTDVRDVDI
T4 sequence (Q00534 whole entry): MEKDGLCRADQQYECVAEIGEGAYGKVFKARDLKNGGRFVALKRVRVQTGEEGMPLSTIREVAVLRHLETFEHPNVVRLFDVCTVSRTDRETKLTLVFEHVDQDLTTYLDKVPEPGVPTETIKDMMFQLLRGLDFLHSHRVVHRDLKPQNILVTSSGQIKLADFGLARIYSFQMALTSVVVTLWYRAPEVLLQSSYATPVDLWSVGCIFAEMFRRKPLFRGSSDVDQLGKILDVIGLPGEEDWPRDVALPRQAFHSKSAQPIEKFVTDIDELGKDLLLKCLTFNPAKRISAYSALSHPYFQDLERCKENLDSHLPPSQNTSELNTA
T4 sequence (P30281 whole entry partner): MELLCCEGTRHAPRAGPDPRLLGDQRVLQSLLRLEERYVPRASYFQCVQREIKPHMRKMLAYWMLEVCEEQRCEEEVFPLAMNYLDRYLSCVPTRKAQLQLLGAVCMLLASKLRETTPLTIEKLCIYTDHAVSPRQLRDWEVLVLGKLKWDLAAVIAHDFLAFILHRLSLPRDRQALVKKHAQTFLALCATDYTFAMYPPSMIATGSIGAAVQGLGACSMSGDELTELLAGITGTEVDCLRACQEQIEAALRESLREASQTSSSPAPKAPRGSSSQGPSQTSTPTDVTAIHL
T1 sequence (P50750 whole entry): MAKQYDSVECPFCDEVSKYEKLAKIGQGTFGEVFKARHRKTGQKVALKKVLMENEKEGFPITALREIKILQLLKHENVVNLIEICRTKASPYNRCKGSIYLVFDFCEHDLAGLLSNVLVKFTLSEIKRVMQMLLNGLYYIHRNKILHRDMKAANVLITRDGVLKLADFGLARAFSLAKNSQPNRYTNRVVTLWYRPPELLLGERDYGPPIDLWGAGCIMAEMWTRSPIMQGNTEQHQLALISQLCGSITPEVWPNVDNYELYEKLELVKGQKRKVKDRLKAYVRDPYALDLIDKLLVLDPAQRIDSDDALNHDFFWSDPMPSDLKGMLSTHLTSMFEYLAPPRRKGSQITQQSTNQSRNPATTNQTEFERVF
T3 sequence (P50613 whole entry): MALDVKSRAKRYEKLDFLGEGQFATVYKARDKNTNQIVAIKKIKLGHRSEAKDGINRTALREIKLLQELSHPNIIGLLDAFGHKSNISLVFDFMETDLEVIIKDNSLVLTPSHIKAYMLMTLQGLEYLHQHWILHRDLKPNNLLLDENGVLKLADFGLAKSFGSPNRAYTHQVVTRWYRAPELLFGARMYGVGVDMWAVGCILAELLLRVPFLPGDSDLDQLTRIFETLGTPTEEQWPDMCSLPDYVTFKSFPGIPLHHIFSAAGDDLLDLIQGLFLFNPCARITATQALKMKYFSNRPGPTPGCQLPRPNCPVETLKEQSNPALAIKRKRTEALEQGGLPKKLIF
T3 sequence (P51946 whole entry partner): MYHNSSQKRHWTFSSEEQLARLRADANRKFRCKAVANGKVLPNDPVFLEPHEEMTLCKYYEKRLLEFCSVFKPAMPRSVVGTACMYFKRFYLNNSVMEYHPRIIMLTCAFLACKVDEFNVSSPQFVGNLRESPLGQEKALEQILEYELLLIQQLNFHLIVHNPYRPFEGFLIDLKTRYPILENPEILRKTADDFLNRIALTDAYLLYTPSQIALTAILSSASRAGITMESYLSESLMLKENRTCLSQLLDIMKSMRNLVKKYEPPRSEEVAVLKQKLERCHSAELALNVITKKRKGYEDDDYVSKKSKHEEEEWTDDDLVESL
T3 sequence (P51948 whole entry partner): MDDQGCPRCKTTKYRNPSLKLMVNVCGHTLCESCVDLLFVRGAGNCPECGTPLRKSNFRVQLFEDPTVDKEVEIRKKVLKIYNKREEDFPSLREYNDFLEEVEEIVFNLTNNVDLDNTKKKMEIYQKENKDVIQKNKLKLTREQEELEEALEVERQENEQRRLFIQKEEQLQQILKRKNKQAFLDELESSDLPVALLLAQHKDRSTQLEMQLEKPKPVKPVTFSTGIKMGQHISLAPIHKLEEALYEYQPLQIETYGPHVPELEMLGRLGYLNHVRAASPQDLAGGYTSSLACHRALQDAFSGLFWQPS

For `COc1ccc(F)cc1-c1ncnc(Nc2cccc(CS(N)(=O)=O)c2)n1` [Compound B3, 3-[(4-(5-Fluoro-2-methoxyphenyl)-1,3,5-triazin-2-yl)amino]benzenemethanesulfonamide], the pIC50 in experiment [1] is 5.02.

With `COc1ccccc1-c1ncnc(Nc2ccccc2)n1` [Compound P1, 4-(2-Methoxyphenyl)-N-phenyl-1,3,5-triazine-2-amine], the negative logarithm of the IC50 (pIC50) at CDK9 was 6.03.

With `COc1cc(F)ccc1-c1ncnc(Nc2cccc(CS(N)(=O)=O)c2)n1` [B2′, 1-(3-{[4-(4-fluoro-2-methoxyphenyl)-1,3,5-triazin-2-yl]amino}phenyl)methanesulfonamide hydrochloride], the pIC50 on CDK9 was 7.98.

For `COc1cccc(F)c1-c1ncnc(Nc2cccc(CS(N)(=O)=O)c2)n1` [Compound B4, 3-[(4-(6-Fluoro-2-methoxyphenyl)-1,3,5-triazin-2-yl)amino]benzenemethanesulfonamide], the pIC50 is 6.70 on CDK9; below 5.00 at CDK4/CyclinD1; below 5.00 at CDK7/CyclinH/Mat1; 4.30 in experiment [1]; below 5.00 on CDK6/CyclinD3.

Turning to `COc1cc(F)ccc1-c1ncnc(Nc2cccc(CCS(N)(=O)=O)c2)n1` [Compound D2, 2-[3-((4-(4-Fluoro-2-methoxyphenyl)-1,3,5-triazin-2-yl)amino)phenyl]ethanesulfonamide], the pIC50 at CDK9 is 7.89; on CDK4/CyclinD1, below 5.00; at CDK7/CyclinH/Mat1, below 5.00; in experiment [1], 4.97; at CDK6/CyclinD3, below 5.00.

As to `COc1ccccc1-c1ncnc(Nc2cccc(S(N)(=O)=O)c2)n1` [C1′, 3-[(4-(2-Methoxyphenyl)-1,3,5-triazin-2-yl)amino]benzenesulfonamide trifluoroacetic acid salt], the pIC50 on CDK9 is 7.68; on CDK4/CyclinD1, 5.82; at CDK7/CyclinH/Mat1, below 5.00; in experiment [1], 5.54; at CDK6/CyclinD3 it was below 5.00.

As for `COc1cc(F)ccc1-c1ncnc(Nc2cccc(CS(N)(=O)=O)c2)n1` [B2″, 1-(3-{[4-(4-fluoro-2-methoxyphenyl)-1,3,5-triazin-2-yl]amino}phenyl)methanesulfonamide trifluoroacetic acid salt], the pIC50 is 7.94 at CDK9; 5.49 on CDK4/CyclinD1; below 5.00 at CDK7/CyclinH/Mat1; 5.44 in experiment [1]; below 5.00 at CDK6/CyclinD3.

With `NS(=O)(=O)Cc1cccc(Nc2ncnc(-c3ccccc3OCc3ccncc3)n2)c1` [Compound B16, 3-[(4-(2-((4-Pyridinyl)methoxy)phenyl)-1,3,5-triazin-2-yl)amino]benzenemethanesulfonamide], the pIC50 on CDK9 was 8.05; at CDK4/CyclinD1, below 5.00; on CDK7/CyclinH/Mat1 it was below 5.00; in experiment [1], 4.92; at CDK6/CyclinD3, below 5.00.

Turning to `NS(=O)(=O)Cc1cccc(Nc2ncnc(-c3ccccc3Oc3ccccc3)n2)c1` [Compound B14, 1-(3-{[4-(2-phenoxyphenyl)-1,3,5-triazin-2-yl]amino}phenyl)methanesulfonamide], the pIC50 on CDK9 is 8.05; in experiment [1], 4.84.

As for `COc1cc(Cl)ccc1-c1ncnc(Nc2cccc(CS(N)(=O)=O)c2)n1` [Compound B6, 3-[(4-(4-Chloro-2-methoxyphenyl)-1,3,5-triazin-2-yl)amino]benzenemethanesulfonamide], the pIC50 was 7.79 on CDK9; below 5.00 on CDK4/CyclinD1; below 5.00 on CDK7/CyclinH/Mat1; 4.82 in experiment [1]; below 5.00 on CDK6/CyclinD3.

Turning to `CCCS(=O)(=O)Nc1cccc(Nc2ncnc(-c3ccccc3OC)n2)c1` [Compound L1, N-[3-((4-(2-Methoxyphenyl)-1,3,5-triazin-2-yl)amino)phenyl]-propanesulfonamide], the pIC50 on CDK9 is 6.95; on CDK4/CyclinD1, below 5.00; at CDK7/CyclinH/Mat1, below 5.00; in experiment [1], below 4.52; at CDK6/CyclinD3, below 5.00.

Turning to `COc1ccccc1-c1ncnc(Nc2cccc([N+](=O)[O-])c2)n1` [Compound H1, 4-(2-Methoxyphenyl)-N-(3-nitrophenyl)-1,3,5-triazine-2-amine], the pIC50 at CDK9 was 6.71.

On to `COc1ccccc1-c1ncnc(Nc2cccc(CCS(N)(=O)=O)c2)n1` [Compound D1, 2-[3-((4-(2-Methoxyphenyl)-1,3,5-triazin-2-yl)amino)phenyl]ethanesulfonamide], for which the pIC50 was 6.86 at CDK9, 5.03 at CDK4/CyclinD1, below 5.00 at CDK7/CyclinH/Mat1 and below 5.00 on CDK6/CyclinD3.

Consider `COc1cc(F)ccc1-c1ncnc(Nc2cccc(CS(N)(=O)=O)c2)n1` [Compound B2, 3-[(4-(4-Fluoro-2-methoxyphenyl)-1,3,5-triazin-2-yl)amino]benzenemethanesulfonamide], for which the pIC50 on CDK9 is 7.97.

`COc1cnccc1-c1ncnc(Nc2cccc(CS(N)(=O)=O)c2)n1` [Compound B19, 3-[(4-(3-Methoxypyridin-4-yl)-1,3,5-triazin-2-yl)amino]benzenemethanesulfonamide]: in experiment [1], the pIC50 is 4.81.

In the case of `NS(=O)(=O)Cc1cccc(Nc2ncnc(-c3ccccc3OCc3ccccc3)n2)c1` [B13′, 3-[(4-(2-Benzyloxyphenyl)-1,3,5-triazin-2-yl)amino]benzenemethanesulfonamide trifluoroacetic acid salt], the negative-log IC50 (pIC50) at CDK9 is 8.24; on CDK4/CyclinD1, 6.17; at CDK7/CyclinH/Mat1, below 5.00; at CDK6/CyclinD3 it was below 5.00.

Consider `COc1ccccc1-c1ncnc(Nc2cccc(NS(C)(=O)=O)c2)n1` [Compound K1, N-[3-((4-(2-Methoxyphenyl)-1,3,5-triazin-2-yl)amino)phenyl]-methanesulfonamide], for which the pIC50 is 7.14 on CDK9, below 5.00 on CDK4/CyclinD1, below 5.00 on CDK7/CyclinH/Mat1 and below 5.00 at CDK6/CyclinD3.
